Test results published in ChEMBL document CHEMBL4825718, “Novel Dihydrooxadiazinones as PDE3 Inhibitors for Treating Cancer” (ACS Med Chem Lett, 2021).

Legend:
HeLa = test: Antiproliferative activity against human HeLa cells assessed as cell growth inhibition after 72 hrs by Cell titer glo assay; type: functional, cell-based
SK-MEL3 = test: Antiproliferative activity against human SK-MEL3 cells assessed as cell growth inhibition after 72 hrs by Cell titer glo assay; type: functional, cell-based; conditions: SK-MEL3, 72 h
IGR-37 cell line = test: Antiproliferative activity against human IGR37 cells assessed as cell growth inhibition after 72 hrs by Cell titer glo assay; type: functional, cell-based; conditions: IGR-37, 72 h
[1] = target: cGMP-inhibited 3',5'-cyclic phosphodiesterase 3A (Homo sapiens, UniProt Q14432); test: Inhibition of human full length PDE3A expressed in Sf9 cells measured after 60 mins by [3H]-cAMP Scintillation proximity assay
cGMP-inhibited 3',5'-cyclic phosphodiesterase 3A, sequence (Q14432 whole entry): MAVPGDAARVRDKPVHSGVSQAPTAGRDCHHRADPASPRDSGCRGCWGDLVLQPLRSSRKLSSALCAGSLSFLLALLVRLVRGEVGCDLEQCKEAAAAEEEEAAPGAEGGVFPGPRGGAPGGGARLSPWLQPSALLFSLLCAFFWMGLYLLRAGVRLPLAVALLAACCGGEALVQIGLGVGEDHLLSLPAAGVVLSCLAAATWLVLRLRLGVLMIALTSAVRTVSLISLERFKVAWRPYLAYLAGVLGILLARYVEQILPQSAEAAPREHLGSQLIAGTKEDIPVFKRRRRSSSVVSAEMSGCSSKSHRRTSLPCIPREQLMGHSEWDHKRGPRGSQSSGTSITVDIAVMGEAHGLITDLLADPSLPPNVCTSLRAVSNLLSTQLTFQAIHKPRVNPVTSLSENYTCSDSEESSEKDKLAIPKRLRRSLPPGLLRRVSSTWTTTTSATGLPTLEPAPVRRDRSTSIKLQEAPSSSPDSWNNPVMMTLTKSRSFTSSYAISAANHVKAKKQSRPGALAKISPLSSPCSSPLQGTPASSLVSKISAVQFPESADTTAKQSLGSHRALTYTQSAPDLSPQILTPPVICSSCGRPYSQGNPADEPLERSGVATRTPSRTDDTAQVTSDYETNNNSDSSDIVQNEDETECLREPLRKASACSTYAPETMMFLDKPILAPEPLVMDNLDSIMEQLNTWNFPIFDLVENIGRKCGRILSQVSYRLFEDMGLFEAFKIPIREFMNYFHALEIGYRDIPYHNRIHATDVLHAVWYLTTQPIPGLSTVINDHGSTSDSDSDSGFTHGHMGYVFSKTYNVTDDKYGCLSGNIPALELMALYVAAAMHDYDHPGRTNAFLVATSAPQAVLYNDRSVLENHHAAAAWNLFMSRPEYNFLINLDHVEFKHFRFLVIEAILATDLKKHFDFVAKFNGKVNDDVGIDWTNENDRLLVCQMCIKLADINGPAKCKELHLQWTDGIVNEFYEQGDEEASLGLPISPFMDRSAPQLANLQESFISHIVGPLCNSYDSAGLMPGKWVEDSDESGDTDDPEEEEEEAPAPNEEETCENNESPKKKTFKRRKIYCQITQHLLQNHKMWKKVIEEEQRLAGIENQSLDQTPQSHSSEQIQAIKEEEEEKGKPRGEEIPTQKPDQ

[2] = target: cGMP-inhibited 3',5'-cyclic phosphodiesterase 3B (Homo sapiens, UniProt Q13370); test: Inhibition of human full length PDE3B expressed in Sf9 cells measured after 60 mins by [3H]-cAMP Scintillation proximity assay
cGMP-inhibited 3',5'-cyclic phosphodiesterase 3B, sequence (Q13370 whole entry): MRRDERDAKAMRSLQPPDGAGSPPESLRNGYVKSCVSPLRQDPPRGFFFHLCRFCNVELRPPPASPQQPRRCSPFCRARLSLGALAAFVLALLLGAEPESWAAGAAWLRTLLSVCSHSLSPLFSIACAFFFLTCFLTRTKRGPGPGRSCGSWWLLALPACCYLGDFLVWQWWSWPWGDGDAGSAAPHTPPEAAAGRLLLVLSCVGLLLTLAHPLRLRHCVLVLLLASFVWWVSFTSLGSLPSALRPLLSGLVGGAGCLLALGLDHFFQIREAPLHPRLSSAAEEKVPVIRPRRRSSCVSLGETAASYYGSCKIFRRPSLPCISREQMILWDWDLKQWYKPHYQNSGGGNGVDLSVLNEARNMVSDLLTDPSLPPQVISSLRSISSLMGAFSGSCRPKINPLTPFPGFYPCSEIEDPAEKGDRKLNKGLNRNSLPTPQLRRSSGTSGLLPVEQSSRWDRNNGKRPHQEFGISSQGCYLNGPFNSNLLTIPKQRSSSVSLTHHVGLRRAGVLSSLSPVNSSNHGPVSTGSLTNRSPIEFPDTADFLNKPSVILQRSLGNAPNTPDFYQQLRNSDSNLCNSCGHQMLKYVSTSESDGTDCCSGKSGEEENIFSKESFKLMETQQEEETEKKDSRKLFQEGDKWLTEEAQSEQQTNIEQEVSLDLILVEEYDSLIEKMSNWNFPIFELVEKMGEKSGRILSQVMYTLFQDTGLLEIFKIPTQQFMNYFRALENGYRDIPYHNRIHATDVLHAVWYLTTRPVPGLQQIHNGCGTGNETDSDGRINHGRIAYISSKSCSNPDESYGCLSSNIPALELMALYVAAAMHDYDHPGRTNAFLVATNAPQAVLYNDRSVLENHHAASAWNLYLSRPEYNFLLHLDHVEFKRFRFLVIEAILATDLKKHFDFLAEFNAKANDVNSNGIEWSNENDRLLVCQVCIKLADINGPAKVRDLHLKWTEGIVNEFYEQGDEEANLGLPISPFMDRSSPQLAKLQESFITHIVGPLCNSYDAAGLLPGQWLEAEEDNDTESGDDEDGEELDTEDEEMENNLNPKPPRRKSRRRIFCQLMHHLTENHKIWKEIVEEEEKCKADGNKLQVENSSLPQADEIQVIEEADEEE

**Q.** Which results are given for `C[C@@H]1OC(=O)NN=C1c1ccc(OC[C@@H](C)F)c(C(F)(F)F)c1`?
**A.** IC50 (HeLa): 0.2 nM; IC50 (SK-MEL3): 0.5 nM; IC50 (IGR-37 cell line): 0.3 nM; IC50 [1]: 9 nM; IC50 [2]: 9 nM

**Q.** `CCCCOc1ccc(C2=NNC(=O)O[C@H]2C)cc1C(F)(F)F` was tested. Which IC50 (HeLa) did it give?
**A.** 0.2 nM

**Q.** And the IC50 (SK-MEL3)?
**A.** 0.6 nM

**Q.** And the IC50 (IGR-37 cell line)?
**A.** 0.5 nM

**Q.** `CCOc1ccc(C2=NNC(=O)O[C@H]2C)cc1C(F)(F)F` was tested. Which IC50 (HeLa) did it give?
**A.** 0.3 nM

**Q.** And the IC50 (SK-MEL3)?
**A.** 0.6 nM

**Q.** What about the IC50 (IGR-37 cell line) of the same molecule?
**A.** 0.5 nM

**Q.** What about the IC50 [1] of the same molecule?
**A.** 6 nM

**Q.** And the IC50 [2]?
**A.** 7 nM

**Q.** Which IC50 (HeLa) does the source give for `C[C@@H]1OC(=O)NN=C1c1ccc(OCCC(F)(F)F)c(C(F)(F)F)c1` here?
**A.** 0.1 nM

**Q.** And the IC50 (SK-MEL3)?
**A.** 0.3 nM

**Q.** And the IC50 (IGR-37 cell line)?
**A.** 0.3 nM

**Q.** And the IC50 [1]?
**A.** 7 nM

**Q.** What about the IC50 [2] of the same molecule?
**A.** 5 nM

**Q.** What does the source list for `CCCOc1ccc(C2=NNC(=O)O[C@H]2C)cc1C(F)(F)F`?
**A.** IC50 (HeLa): 0.1 nM; IC50 (SK-MEL3): 0.3 nM; IC50 (IGR-37 cell line): 0.3 nM; IC50 [1]: 8 nM; IC50 [2]: 5 nM

**Q.** `COCCOc1ccc(C2=NNC(=O)O[C@H]2C)cc1C(F)(F)F` was tested. Which IC50 (HeLa) did it give?
**A.** 0.1 nM

**Q.** And the IC50 (SK-MEL3)?
**A.** 0.3 nM

**Q.** And the IC50 (IGR-37 cell line)?
**A.** 0.2 nM
